Data published in the supplement of paper PMC7108870.

Key:
HEK293sieSTAT3(Y640F) [1] = assay: drug sensitivity score (DSS), viability CellTiter-Glo (DSS (dimensionless)); higher = more growth inhibition; extreme values may be limits of the assay; conditions: 72 h; STAT3 variant: Y640F (constitutively active)
Summary of the method: (§1)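 Each value is one representative of two experiments in which HEK293 cells overexpressing wild-type or mutant STAT3 with a STAT3-dependent luciferase reporter were exposed to compounds at 5 concentrations (10-fold dilutions) for 72 hours at 37°C and 5% CO2. Readouts were CellTox Green fluorescence and then CellTiter-Glo luminescence, normalised to negative and positive control wells. The drug sensitivity score was based on the dose-response curve area and computed in Breeze.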

HEK293sieSTAT3(wt) [2] = assay: as above; conditions: 72 h; STAT3 variant: wild type
Summary of the method: as §1

HEK293sieSTAT3(Y640F) [3] = assay: drug sensitivity score (DSS), cytotoxicity CellTox Green (DSS (dimensionless)); higher = more cytotoxic; extreme values may be limits of the assay; conditions: 72 h; STAT3 variant: Y640F (constitutively active)
Summary of the method: as §1

HEK293sieSTAT3(wt) [4] = assay: as above; conditions: 72 h; STAT3 variant: wild type
Summary of the method: as §1

Row | Structure (SMILES) | drug sensitivity score (HEK293sieSTAT3(Y640F) [1]) | drug sensitivity score (HEK293sieSTAT3(wt) [2]) | drug sensitivity score (HEK293sieSTAT3(Y640F) [3]) | drug sensitivity score (HEK293sieSTAT3(wt) [4])
1 | N[C@@H]1CCCN(c2c(/C=C3\SC(=O)NC3=O)cccc2-c2ccccc2)C1 [AZD1208] (top concentration tested 10000 nM) | 0 | 0 | 0 | 0
2 | Cc1cc(Nc2nc(N[C@@H](C)c3ncc(F)cn3)ncc2Cl)[nH]n1 [AZD1480] (top concentration tested 1000 nM) | 0 | 0.06 | 0.04 | 0.43
3 | CNC(=O)c1cccc(-c2ccc3c(N4CCOC[C@@H]4C)nc(N4CCOC[C@@H]4C)nc3n2)c1 [AZD2014] (top concentration tested 10000 nM) | 18 | 20.1 | 0 | 4.19
4 | COc1cc(CCc2cc(NC(=O)c3ccc(N4CC(C)NC(C)C4)cc3)n[nH]2)cc(OC)c1 (stereo unspecified) [AZD4547] (top concentration tested 1000 nM) | 1.23 | 0.43 | 0 | 0.01
5 | CN(C)C(=O)c1ccc(S(=O)(=O)c2ccc(NC(=O)[C@@](C)(O)C(F)(F)F)c(Cl)c2)cc1 [AZD7545] (top concentration tested 10000 nM) | 0.82 | 0.28 | 0 | 0
6 | NC(=O)Nc1cc(-c2cccc(F)c2)sc1C(=O)N[C@H]1CCCNC1 [AZD7762] (top concentration tested 1000 nM) | 14.9 | 16.8 | 4.24 | 7.16
7 | COc1ccc(-c2ccc3c(N4CCOC[C@@H]4C)nc(N4CCOC[C@@H]4C)nc3n2)cc1CO [AZD8055] (top concentration tested 10000 nM) | 25.7 | 26.8 | 0 | 3.7
8 | N#Cc1ccc2[nH]c(O)c(-c3ccc(CN4CCOCC4)cn3)c2c1 [AZD-1080] (top concentration tested 10000 nM) | 1.14 | 0.74 | 0 | 2.84
9 | Cc1ncc(-c2ccnc(Nc3ccc(S(C)(=O)=O)cc3)n2)n1C(C)C [AZD-5438] (top concentration tested 10000 nM) | 9.27 | 15.4 | 5.66 | 13.8
10 | Cc1cc([C@@H](C)Nc2ccccc2C(=O)O)c2nc(N3CCOCC3)cc(=O)n2c1 [AZD-6482] (top concentration tested 2500 nM) | 1.08 | 1.97 | 0 | 0.89
11 | C[C@@H](Nc1cc(F)cc(F)c1)c1cc(C(=O)N(C)C)cc2c(=O)cc(N3CCOCC3)oc12 [AZD-8186] (top concentration tested 1000 nM) | 0 | 0.9 | 0 | 0
12 | Cc1cc(C(=O)NOCCO)c(Nc2ccc(I)cc2F)n(C)c1=O [AZD-8330] (top concentration tested 10000 nM) | 7.16 | 0.01 | 0 | 0
13 | CCN1CCN(Cc2ccc(Nc3ncc(F)c(-c4cc(F)c5nc(C)n(C(C)C)c5c4)n3)nc2)CC1 [Abemaciclib] (top concentration tested 2500 nM) | 0.98 | 0.4 | 0 | 0
14 | CN(C)Cc1c(C(=O)NCCOc2ccc(C(=O)NO)cc2)oc2ccccc12 [Abexinostat] (top concentration tested 10000 nM) | 22.9 | 22.3 | 10.7 | 17.5
15 | C[C@]12CC[C@H](O)CC1=CC[C@@H]1[C@@H]2CC[C@]2(C)C(c3cccnc3)=CC[C@@H]12 [Abiraterone] (top concentration tested 5000 nM) | 2.65 | 1.01 | 0 | 0
16 | CN(C)C/C=C/C(=O)Nc1cc2c(Nc3ccc(F)c(Cl)c3)ncnc2cc1O[C@H]1CCOC1 [Afatinib] (top concentration tested 1000 nM) | 0.98 | 1.06 | 0 | 0
17 | Cn1ncc(Cl)c1-c1cc(C(=O)N[C@H](CN)Cc2cccc(F)c2)sc1Cl [Afuresertib] (top concentration tested 1000 nM) | 6.74 | 9.38 | 0 | 0
18 | COc1cccc2c1C(=O)c1c(O)c3c(c(O)c1C2=O)C[C@@](O)(/C(CO)=N/NC(=O)CCCCCN1C(=O)C=CC1=O)C[C@@H]3O[C@H]1C[C@H](N)[C@H](O)[C@H](C)O1 [Aldoxorubicin] (top concentration tested 1000 nM) | 19.7 | 21.1 | 0 | 0
19 | CCc1cc2c(cc1N1CCC(N3CCOCC3)CC1)C(C)(C)c1[nH]c3cc(C#N)ccc3c1C2=O [Alectinib] (top concentration tested 1000 nM) | 3.02 | 4.73 | 0 | 2.75
20 | COc1cc(Nc2ncc3c(n2)-c2ccc(Cl)cc2C(c2c(F)cccc2OC)=NC3)ccc1C(=O)O [Alisertib] (top concentration tested 10000 nM) | 9.16 | 12.1 | 0 | 8.65
21 | Oc1ncnc2[nH]ncc12 [Allopurinol] (top concentration tested 10000 nM) | 3.38 | 0.7 | 0 | 0
22 | Cc1nc(NC(=O)N2CCC[C@H]2C(N)=O)sc1-c1ccnc(C(C)(C)C(F)(F)F)c1 [Alpelisib] (top concentration tested 2500 nM) | 0.49 | 3.18 | 0 | 0

Row | Structure (SMILES) | drug sensitivity score (HEK293sieSTAT3(Y640F) [1]) | drug sensitivity score (HEK293sieSTAT3(wt) [2]) | drug sensitivity score (HEK293sieSTAT3(Y640F) [3]) | drug sensitivity score (HEK293sieSTAT3(wt) [4])
23 | CN(C)c1nc(N(C)C)nc(N(C)C)n1 [Altretamine] (top concentration tested 10000 nM) | 0 | 0 | 0 | 0
24 | CO[C@H]1/C=C\C=C(/C)C(=O)NC2=CC(=O)C(NCCN(C)C)=C(C[C@@H](C)C[C@H](OC)[C@H](O)[C@@H](C)/C=C(\C)[C@@H]1OC(N)=O)C2=O [Alvespimycin] (top concentration tested 1000 nM) | 14.9 | 16.6 | 7.84 | 16.2
25 | CN1CC[C@H](c2c(O)cc(O)c3c(=O)cc(-c4ccccc4Cl)oc23)[C@H](O)C1 [Alvocidib] (top concentration tested 10000 nM) | 20.1 | 24.4 | 9.09 | 17.1
26 | CCC1(c2ccc(N)cc2)CCC(=O)NC1=O (stereo unspecified) [Aminoglutethimide] (top concentration tested 10000 nM) | 0.16 | 0.06 | 0 | 0
27 | CN(C)CCN1C(=O)c2cccc3cc(N)cc(c23)C1=O [Amonafide] (top concentration tested 10000 nM) | 11.3 | 15 | 1.87 | 7.09
28 | COc1cc(NS(C)(=O)=O)ccc1Nc1c2ccccc2nc2ccccc12 [Amsacrine] (top concentration tested 10000 nM) | 25.2 | 26.9 | 6.68 | 11.1
29 | S=C(NCc1ccc2c(c1)OCO2)N1CCN(c2ncnc3c2oc2ccccc23)CC1 [Amuvatinib] (top concentration tested 10000 nM) | 5.74 | 5.71 | 3.08 | 8.39
30 | O=C1CN2Cc3c(ccc(Cl)c3Cl)N=C2N1 [Anagrelide] (top concentration tested 10000 nM) | 0.64 | 0.64 | 0.01 | 0.62
31 | CC(C)(C#N)c1cc(Cn2cncn2)cc(C(C)(C)C#N)c1 [Anastrozole] (top concentration tested 10000 nM) | 0.01 | 0 | 0 | 0
32 | N#CC1(c2ccc(NC(=O)c3cccnc3NCc3ccncc3)cc2)CCCC1 [Apatinib] (top concentration tested 10000 nM) | 0.11 | 0 | 0.2 | 0.3
33 | Cc1c(CN2CCN(C(=O)[C@H](C)O)CC2)sc2c(N3CCOCC3)nc(-c3cnc(N)nc3)nc12 [Apitolisib] (top concentration tested 10000 nM) | 23.8 | 19.8 | 0 | 8.67
34 | CC(C)c1c(C(=O)Nc2ccccc2)c(-c2ccccc2)c(-c2ccc(F)cc2)n1CC[C@@H](O)C[C@@H](O)CC(=O)O [Atorvastatin] (top concentration tested 10000 nM) | 6.61 | 8.29 | 9.06 | 6.93
35 | CC(=O)OC[C@H]1O[C@@H]([S-])[C@H](OC(C)=O)[C@@H](OC(C)=O)[C@@H]1OC(C)=O.CCP(CC)CC.[Au+] [Auranofin] (top concentration tested 2500 nM) | 9.25 | 8.14 | 6.36 | 9.45
36 | CNC(=O)c1ccccc1Sc1ccc2c(/C=C/c3ccccn3)n[nH]c2c1 [Axitinib] (top concentration tested 10000 nM) | 5.84 | 8.07 | 4.38 | 7.83
37 | Nc1ncn([C@@H]2O[C@H](CO)[C@@H](O)[C@H]2O)c(=O)n1 [Azacitidine] (top concentration tested 10000 nM) | 2.86 | 2.72 | 0 | 0.87
38 | Cc1cc(-c2nc(-c3ccc(OC(F)(F)F)cc3)no2)nn1Cc1ccnc(N2CCN(C3CC3)CC2)c1 [BAY 87-2243] (top concentration tested 1000 nM) | 12.6 | 12.5 | 0 | 0
39 | Nc1nc(Nc2ccc3c(c2)CC[C@@H](N2CCCC2)CC3)nn1-c1cc2c(nn1)-c1ccccc1CCC2 [BGB324] (top concentration tested 10000 nM) | 10.2 | 12 | 6.14 | 11.9
40 | CC[C@@H]1C(=O)N(C)c2cnc(Nc3ccc(C(=O)NC4CCN(C)CC4)cc3OC)nc2N1C1CCCC1 [BI 2536] (top concentration tested 1000 nM) | 23.5 | 24.7 | 2.98 | 20.1
41 | COc1c(C)cnc(Cn2cnc3c(Cl)nc(N)nc32)c1C [BIIB021] (top concentration tested 10000 nM) | 24.6 | 27.9 | 9.95 | 24.2
42 | O=C(Nc1cccc(Nc2ncc(Br)c(NCCc3cnc[nH]3)n2)c1)N1CCCC1 [BX-912] (top concentration tested 10000 nM) | 5.58 | 6.67 | 0 | 0
43 | Cc1ccc(NC(=O)c2ccc(CN3CC[C@H](N(C)C)C3)c(C(F)(F)F)c2)cc1Nc1nccc(-c2cncnc2)n1 [Bafetinib] (top concentration tested 1000 nM) | 1.34 | 2.29 | 0 | 0
44 | CCS(=O)(=O)N1CC(CC#N)(n2cc(-c3ncnc4[nH]ccc34)cn2)C1 [Baricitinib] (top concentration tested 2500 nM) | 2.8 | 1.02 | 0 | 0.42
